One assay concerns the target T1, Bromodomain BRD3 (Homo sapiens, UniProt Q15059).
T1 construct: BRD3 (1-435); made in house; host or cells: E. coli (pET15b vector)
As to the kind of experiment: Time Resolved Fluorescence Resonance Energy Transfer (TR-FRET) assay, BRD3. The settings on record: BRD3 (1-435), acetylated histone peptide. It is filed as binding. The procedure:
(§1) Time Resolved Fluorescence Resonance […] Transfer (TR-FRET) Assay
(§2) The binding of the compounds of formula (I) to Bromodomains BRD2, BRD3 and BRD4 was assessed using a time resolved fluorescent resonance energy transfer binding assay, that measures the binding of an acetylated histone peptide to the bromodomain protein.
(§3) The bromodomain protein, histone peptide and a variable concentration of test compound are incubated together to reach thermodynamic equilibrium.
(§4) The protected peptide was assembled on a solid-phase synthesiser using preloaded Wang resin and utilising standard Fmoc synthesis protocols. The C-terminal lysine was protected by a hyper acid-labile group allowing for its selective removal at the end of the assembly and attachment of the biotin. The crude peptide was obtained after cleavage from the resin with a mixture of trifluoroacetic acid (TFA), triisopropylsilane and water (95:2.5:2.5) for 3 h at room temperature and was then purified using a C18 reverse-phase column utilising a 0.1% TFA-buffered water/acetonitrile gradient. The resulting fractions were analysed and fractions which were >95% pure by analytical HPLC and giving the correct mw (by MALDiTOF mass spectroscopy) were pooled and freeze dried. The final material was analysed by HPLC to confirm purity.
(§5) Recombinant Human Bromodomains (BRD2 (1-473), BRD3 (1-435) and BRD4 (1-477)) were expressed in E. coli cells (in pET15b vector) with a six-His tag at the N-terminal. The His-tagged Bromodomain was extracted from E. coli cells using sonication and purified using a nickel sepharose 6FF column, the proteins were washed and then eluted with 50 mM Tris-Hcl pH8.0. 300 mM NaCl, 1 mM β-mercaptoethanol and 20 mM Imidazole. Further purification was performed by affinity chromatography on a HisTRAP HP column, eluting with a linear 0-500 mM […] gradient, over 20 column volumes. Final purification was completed by Superdex 200 prep grade size exclusion column. Purified protein was stored at −80 C in 20 mM HEPES pH 7.5 and 100 mM NaCl. Protein identity was confirmed by peptide mass fingerprinting and predicted molecular weight confirmed by mass spectrometry.
(§6) Protocol for Bromodomain BRD2, 3 and 4 Assays:
(§7) All assay components were dissolved in buffer composition of 50 mM HEPES pH7.4, 50 mM NaCl and 0.5 mM CHAPS. The final concentration of bromodomain proteins were 100 nM and the histone peptide was 300 nM, these components are premixed and allowed to equilibrate for 1 hour in the dark. 8 μl of this reaction mixture was added to all wells containing 50 nl of various concentrations of test compound or DMSO vehicle (0.5% final) in Greiner 384 well black low volume microtitre plates and incubated in dark for 60 mins at room temperature. […] detection mixture containing anti-6his XL665 labeled antibody and streptavidin labeled with europium cryptate was added to all wells and a further dark incubation of at least 30 mins was performed. Plates were then read on the Envision platereader, (λex=317 nm, donor λEM=615 nm; acceptor λEM=665 nm; Dichroic LANCE dual). Time resolved fluorescent intensity measurements were made at both emission wavelengths and the ratio of acceptor/donor was calculated and used for data analysis. All data was normalized to the mean of 16 high and 16 low control wells on each plate. A four parameter curve fit of the following form was then applied: y=a+((b−a)/(1+(10^x/10^c)^d)
(§8) Where ‘a’ is the minimum, ‘b’ is the Hill slope, ‘c’ is the pIC50 and ‘d’ is the maximum.
(In general: Time-resolved FRET reads energy transfer from a long-lived donor to a nearby acceptor.)

The target of the next assay is T2, Bromodomain BRD4 (Homo sapiens, UniProt O60885).
T2 construct: BRD4 (1-477); made in house; host or cells: E. coli (pET15b vector)
Nature of the assay: Time Resolved Fluorescence Resonance Energy Transfer (TR-FRET) assay, BRD4. The assay is classed as binding. The following applies: BRD4 (1-477), acetylated histone peptide. The procedure: as §1, §2, §3, §4, §5, §6, §7, §8

A further assay deals with T3, Bromodomain BRD2 (Homo sapiens, UniProt P25440).
T3 construct: BRD2 (1-473); made in house; host or cells: E. coli (pET15b vector)
T3 sequence (P25440 1-473): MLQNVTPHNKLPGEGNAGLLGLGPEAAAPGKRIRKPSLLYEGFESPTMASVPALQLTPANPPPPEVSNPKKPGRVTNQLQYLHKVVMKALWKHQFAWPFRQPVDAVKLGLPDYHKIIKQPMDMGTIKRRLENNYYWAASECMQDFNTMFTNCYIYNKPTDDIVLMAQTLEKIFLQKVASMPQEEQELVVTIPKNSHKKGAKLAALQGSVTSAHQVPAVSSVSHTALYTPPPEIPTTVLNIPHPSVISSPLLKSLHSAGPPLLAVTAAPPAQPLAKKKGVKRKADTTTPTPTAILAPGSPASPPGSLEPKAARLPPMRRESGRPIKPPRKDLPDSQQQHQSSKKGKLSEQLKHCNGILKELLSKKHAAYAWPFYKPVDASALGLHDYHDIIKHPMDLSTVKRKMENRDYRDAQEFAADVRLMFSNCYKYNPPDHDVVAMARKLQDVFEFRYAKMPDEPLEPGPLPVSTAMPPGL
As to the kind of experiment: Time Resolved Fluorescence Resonance Energy Transfer (TR-FRET) assay, BRD2. The settings on record: BRD2 (1-473), acetylated histone peptide. The assay is classed as binding. The procedure:
as §1, §2, §3, §4, §5, §6, §7, §8

The subject of assay [1] is LPS induced IL-6 secretion from whole blood. As to the kind of experiment: Measurement of LPS induced IL-6 secretion from whole blood. It is filed as cell-based. The settings on record: 24 h, LPS 200 ng/ml, IL-6 by immunoassay. Here is the method:
Measurement of LPS Induced IL-6 Secretion from Whole Blood
Activation of monocytic cells by agonists of toll-like receptors such as bacterial lipopolysaccharide (LPS) results in production of key inflammatory mediators including IL-6. Such pathways are widely considered to be central to the pathophysiology of a range of auto-immune and inflammatory disorders.
Compounds to be tested are diluted to give a range of appropriate concentrations of which 1 μl of the diluted stocks is added to a 96 well plate. Following addition of whole blood (130 μl) the plates are incubated at 37 degrees (5% CO2) for 30 min before the addition of 10 μl of 2.8 ug/ml LPS, diluted in complete RPMI 1640 (final concentration=200 ng/ml), to give a total volume of 140 ul per well. After further incubation for 24 hours at 37 degrees, 140 μl of PBS are added to each well. The plates are sealed, shaken for 10 minutes and then centrifuged (2500 rpm×10 min). 100 μl of the supernatant are removed and IL-6 levels assayed by immunoassay (typically by MesoScale Discovery technology) either immediately or following storage at −20 degrees. Concentration response curves for each compound was generated from the data and an IC50 value was calculated

The values below come from patent US9315487B2, “Tetrahydroquinoline derivatives useful as bromodomain inhibitors” (GlaxoSmithKline LLC, priority 2011, dated 2016).

T1 sequence (Q15059 1-435): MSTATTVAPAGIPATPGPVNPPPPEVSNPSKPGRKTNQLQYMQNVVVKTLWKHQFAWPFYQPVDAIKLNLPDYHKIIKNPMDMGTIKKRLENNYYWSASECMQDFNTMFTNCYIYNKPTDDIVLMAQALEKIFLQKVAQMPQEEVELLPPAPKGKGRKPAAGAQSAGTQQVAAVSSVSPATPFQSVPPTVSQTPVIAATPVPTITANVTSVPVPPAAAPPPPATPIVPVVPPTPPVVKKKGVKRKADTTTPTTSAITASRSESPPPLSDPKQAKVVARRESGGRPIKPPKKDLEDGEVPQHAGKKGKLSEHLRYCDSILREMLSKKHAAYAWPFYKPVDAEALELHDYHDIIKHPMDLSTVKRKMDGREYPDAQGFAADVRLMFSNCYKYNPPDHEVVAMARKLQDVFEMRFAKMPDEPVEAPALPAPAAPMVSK

As a reminder, the IC50 is the concentration that gives 50% inhibition. A low value points to greater potency in that assay. On to `COCCn1cc(-c2ccc3c(c2)[C@H](Nc2cnc(C)cn2)C[C@H](C)N3C(C)=O)cn1` [Example 8, 1-((2S,4R)-6-(1-(2-methoxyethyl)-1H-pyrazol-4-yl)-2-methyl-4-((5-methylpyrazin-2-yl)amino)-3,4-dihydroquinolin-1(2H)-yl)ethanone], for which the 50% inhibitory concentration (IC50) against Bromodomain BRD3 was 63.1 to 316 nM; at Bromodomain BRD4 it was 63.1 to 316 nM; at Bromodomain BRD2 it was 63.1 to 316 nM; in assay [1] it was 126 to 1000 nM.
Regarding `COCCn1cc(-c2ccc3c(c2)[C@H](Nc2ccc(C#N)cn2)C[C@H](C)N3C(C)=O)nn1` [Example 3, 6-(((2S,4R)-1-acetyl-6-(1-(2-methoxyethyl)-1H-1,2,3-triazol-4-yl)-2-methyl-1,2,3,4-tetrahydroquinolin-4-yl)amino)nicotinonitrile], the IC50 against Bromodomain BRD3 was 63.1 to 316 nM; at Bromodomain BRD4, 63.1 to 316 nM; against Bromodomain BRD2, 63.1 to 316 nM; in assay [1], 126 to 1000 nM.
On to `COCCn1cc(-c2ccc3c(c2)[C@H](Nc2cccc(Cl)c2)C[C@H](C)N3C(C)=O)cn1` [Example 7, 1-((2S,4R)-4-((3-chlorophenyl)amino)-6-(1-(2-methoxyethyl)-1H-pyrazol-4-yl)-2-methyl-3,4-dihydroquinolin-1(2H)-yl)ethanone], for which the IC50 against Bromodomain BRD3 was 63.1 to 316 nM; against Bromodomain BRD4 it was 63.1 to 316 nM; on Bromodomain BRD2, 63.1 to 316 nM; in assay [1], 126 to 1000 nM.
For the compound `COCCn1cc(-c2ccc3c(c2)[C@H](Nc2ccc(Cl)cn2)C[C@H](C)N3C(C)=O)cn1` [Example 5, 1-((2S,4R)-4-((5-chloropyridin-2-yl)amino)-6-(1-(2-methoxyethyl)-1H-pyrazol-4-yl)-2-methyl-3,4-dihydroquinolin-1(2H)-yl)ethanone], the IC50 on Bromodomain BRD3 was 63.1 to 316 nM; against Bromodomain BRD4, 63.1 to 316 nM; on Bromodomain BRD2 it was 63.1 to 316 nM; in assay [1] it was 126 to 1000 nM.
For `COCCn1cc(-c2ccc3c(c2)[C@H](Nc2ccc(C)cn2)C[C@H](C)N3C(C)=O)cn1` [Example 6, 1-((2S,4R)-6-(1-(2-methoxyethyl)-1H-pyrazol-4-yl)-2-methyl-4-((5-methylpyridin-2-yl)amino)-3,4-dihydroquinolin-1(2H)-yl)ethanone], the 50% inhibitory concentration (IC50) at Bromodomain BRD3 is 63.1 to 316 nM; against Bromodomain BRD4 it was 63.1 to 316 nM; against Bromodomain BRD2, 63.1 to 316 nM; in assay [1], 126 to 1000 nM.
For the compound `COCCn1ncc(-c2ccc3c(c2)[C@H](Nc2ccc(C#N)cn2)C[C@H](C)N3C(C)=O)n1` [Example 4, 6-(((2S,4R)-1-acetyl-6-(2-(2-methoxyethyl)-2H-1,2,3-triazol-4-yl)-2-methyl-1,2,3,4-tetrahydroquinolin-4-yl)amino)nicotinonitrile], the IC50 at Bromodomain BRD3 was 63.1 to 316 nM; against Bromodomain BRD4 it was 63.1 to 316 nM; at Bromodomain BRD2, 63.1 to 316 nM; in assay [1] it was 126 to 1000 nM.
